Read-outs that look alike come from different tables or passages of the source.
Key:
[1] = Protocol: Surface area data were collected using nitrogen absorption on a BET Micrometics Gemini V (11-point BET analysis) analyzer. The samples were outgassed at 25° C. under vacuum for at least 2 hours. SRM 1899 and SRM 1900 were used as the calibration standards.
[2] = remark: listed apart in the source
Description: Samples were submitted to Particle Technology Labs (PTL), Downers Grove, Ill., for bulk and tapped density analyses.

[3] = remark: listed apart in the source
Description: Particle size data was acquired using a Malvern Instruments MS2000 equipped with a Hydro2000μP dispersion unit. Data was collected and analyzed with Mastersizer 2000v.5.1 software, using volume based measurements. NIST traceable glass beads were used as the reference standard.
The final method conditions selected for determining the particle size of BL-1021 fumarate salts were as follows:
Dispersant: silicone oil;
Dispersant refractive index: 1.403;
The measurement of particle size of all lots was performed using the same method conditions (silicone oil as a dispersing medium, a pump speed of 1750 rpm).

[4] = batches after milling, listed as CC-2190.0-20.1
[5] = batches after milling, listed as CC-2190.0-21.1
[6] = batches after milling, listed as CC-2190.0-23.1
[7] = batches after milling, listed as CC-2562.0-01.1
[8] = batches before and after milling
[9] = silicone oil dispersing medium, pump speed 1750 rpm, volume based, text b315 speaks of μm

CN(CCC=C1c2ccccc2CCc2ccccc21)C(=O)CCCN.O=C(O)/C=C/C(=O)O [BL-1021 fumarate salt, nortriptyline-4-aminobutyrate fumarate]
BET surface area, Results ([1]; batch before milling): 6.58 m^2/g | BET surface area, Results [1, 4]: 8.43 m^2/g | BET surface area, Results [1, 5]: 10.84 m^2/g | BET surface area, Results [1, 6]: 11.84 m^2/g | BET surface area, Results [1, 7]: 7.45 m^2/g | Bulk density ([2]; batch before milling): 0.29 g/mL | Tapped density ([2]; batch before milling): 0.42 g/mL | Bulk density [2, 4]: 0.22 g/mL | Tapped density [2, 4]: 0.35 g/mL | Bulk density [2, 5]: 0.18 g/mL | Tapped density [2, 5]: 0.31 g/mL | Bulk density [2, 6]: 0.25 g/mL | Tapped density [2, 6]: 0.39 g/mL | Bulk density [2, 7]: 0.19 g/mL | Tapped density [2, 7]: 0.36 g/mL | bulk density (range over batches) [2, 8]: 0.18-0.29 gram/ml | tapped density (range over batches) [2, 8]: 0.31-0.42 gram/ml | particle size distribution d10 [3, 9]: 7.0 | particle size distribution d50 [3, 9]: 93.9 | particle size distribution d90 [3, 9]: 220.8 | D90 (as stated in text, FIG. 6) ([3]; silicone oil, 1750 rpm): 200±25% | particle size up to (upper end of bimodal distribution, FIG. 6) ([3]; silicone oil, 1750 rpm, fine tail below 1 μm): ≤ 400 μm

— patent publication US8916610B2, “Acid addition salt of a nortriptyline-GABA conjugate and a process of preparing same” (Ramot at Tel-Aviv University Ltd., priority 2010, dated 2014)
